From patent publication US6399654B1, “Biflavanoids and derivatives thereof as antiviral agents” (priority 1995, dated 2002)
Values after ≈ are worked out from the molar mass of the structure shown. Values joined by “and” are separate entries in the source; they are usually repeats but may differ in a detail not shown here. Equal entries are not always repeated. Where two headings read alike, the source gives them in different places.

How the values were obtained:
Measles Virus = assay: microbe, parasite or virus in culture; type: cell-based; conditions: Measles morbillivirus, BSC-1; Measles Virus; read-out: CPI Inhibition EC50
Adenovirus Type 5 = assay: microbe, parasite or virus in culture; type: cell-based; conditions: Human mastadenovirus C, A549, read-out: CPE Inhibition EC50
[1] = tested on: Influenza A (H3N2) Beijing/32/92; assay: microbe, parasite or virus in culture; type: cell-based, influenza A virus; conditions: Influenza A virus, MDCK; Influenza A (H3N2) Beijing/32/92; read-out: Neutral Red EC50
Hepatitis B Virus (HBV) [2] = assay: Inhibition of HBV replication in 2.2.15 cells, extracellular (virion) HBV DNA; conditions: for EC90: 2.2.15 cells; for SI (CC50/EC90), HBV Virion: selective index;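 as to all read-outs here: extracellular virion HBV DNA in culture medium measured by slot blot hybridization with a 32P-labeled HBV probe, quantified against HBV DNA standards, after 9 days of daily dosing, compared with day 0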
Method: (§1) Test compounds were added daily for a nine continuous day period; the culture medium was collected and stored for analysis of extracellular (virion) HBV DNA after 0, 3, 6, and 9 days of treatment. The treated cells were lysed 24 hours following day 9 of treatment for the analysis of intracellular HBV genomic forms. The overall levels of HBV DNA (both extracellular and intracellular DNA) and the relative rate of HBV replication (intracellular DNA) were analyzed quantitatively. The analysis was performed using blot hybridization techniques and [^32P]-labeled HBV-specific probes. The HBV DNA levels were measured by comparison to known amounts of HBV DNA standards applied to every nitrocellulose membrane (gel or slot blot). An AMBIS beta scanner, which measures the radioactive decay of the hybridized probes directly from the nitrocellulose membranes, was used for the quantitative analysis. Standard curves, generated by multiple analyses, were used to correlate CPM measurements made by the beta scanner with relative levels of target HBV DNA. The levels of HBV virion DNA released into the culture medium were analyzed by a slot blot hybridization procedure. HBV DNA levels were then compared to those at day 0 to determine the effect of the test compound. A known positive drug was evaluated in parallel with test compounds in each test.
Determination of therapeutic concentrations (EC50 and EC90) and toxicity concentrations (IC50) were determined as previously described (90). Stock solutions of text drugs were prepared in DMSO. Culture medium was changed daily and analyzed for extracellular HBV DNA after nine days of continuous drug exposure. Extracellular HBV DNA was extracted from the culture media and analyzed by a slot blot hydridization technique, using a ^32P-labeled Eco RI HBV DNA fragment, as previously described (91), and quantitated via comparison to HBV standards on a nitrocellulose filter, using an AMBIS beta scanner. Toxicity was determined by measuring inhibition of neutral red dye uptake. […] Effective concentration values for individual agents are the mean of six cultures per concentration point. Toxicity values are the mean of three cultures per concentration point.

[3] = tested on: Parainfluenza Type 3 Virus; assay: organism not typed; type: cell-based; conditions: MA104, read-out: Neutral Red EC50
[4] = Cytotoxicity in uninfected PHA-stimulated human PBM cells; conditions: human
in vitro [5] = conditions: human
Influenza B Panama/45/90 = assay: microbe, parasite or virus in culture; type: cell-based; conditions: Influenza B virus, MDCK; Influenza B Panama/45/90; read-out: CPE Inhibition EC50
in vitro [6] = conditions: dog
Hepatitis B Virus (HBV) [7] = assay: HBV replication intermediates (RI, intracellular HBV DNA) in 2.2.15 cells; type: cell-based
Method: as §1

HIV-1 RT = target: T1, HIV-1 RT (Human immunodeficiency virus type 1 group M subtype B, UniProt P03366); assay: Anti-HIV-1 RT assay (recombinant enzyme); type: biochemical
T1 construct: made in house; host or cells: Escherichia coli

HIV-1 (strain LAV-1) = assay: microbe, parasite or virus in culture; type: cell-based
Hepatitis B Virus (HBV) [8] = assay: HBV proteins and nucleic acids in 2.2.15 cells; type: cell-based; conditions: Day 9, 2.2.15 cells; robustaflavone @10 μM
Method: Values of HBV proteins were determined by semi-quantitative EIA performed as previously described.^83 For the EIA analyses, test samples-were diluted (2- to 10-fold) so that the assay values produced were within the linear dynamic range of the EIA assays. Standard curves using serial dilutions of positive assay controls were included in each set of EIA analyses. HBV surface antigen ([…]), preSI protein, and HBc antigen ([…]) are released as extracellular products and were therefore analyzed in culture medium obtained 24 h following the last treatment dose of oligonucleotides or 2′, 3′-ddc. HBV core antigen (HBcAg) is an intracellular viral protein and was assayed in cell extracts produced by Triton-X-100 lysis.^83
Cultures for HBV RNA were maintained on 6-well plates, cultures for HBV virion DNA analyses were maintained on either 96- or 24-well plates, and cultures for all other HBV parameters were maintained on 24-well plates.
The concentrations of antiviral agents used in these studies approximates the EC50 values of the individual agents against intracellular HBV DNA replication intermediates (HBV RI). Cultures were treated with the indicated agents for 9 days using standard procedures. Values reported are the levels of the indicated HBV markers at the end of the treatment period (“DAY 9”) expressed as a percentage (±standard deviation (S.D.) of the average levels in the control cultures at the beginning of the treatment period (“DAY 0”). The method of expression permits an analysis of the variation of the HBV markers in the untreated (control) cultures over the course of the treatment period. HBV nucleic acid levels were measured by standard blot hydridization (dot, Southern, or Northern). HBV protein levels were measured by standard semi-quantitative EIA methods. Cultures for HBV RNA were maintained in 6-well culture plates. The levels of each of two major classes of HBV RNA transcripts are listed separately. Cultures for all other HBV markers were maintained in 24-well culture plates. For each treatment, a total of 4 separate cultures were used for the analysis of each HBV marker at both DAY 0 and DAY 9.
Determination of Mechanism of Action. Measurements of intracellular and extracellular HBV DNA, 3.6 kb and 2.1 kb mRNA fragments, and HBsAg, HBeAg and HBcAg protein markers were conducted as previously described (93).

[9] = tested on: Respiratory Syncytial Virus; assay: microbe, parasite or virus in culture; type: cell-based; conditions: human respiratory syncytial virus, MA104; read-out: Neutral Red EC50
HFF Cells = assay: Cytotoxicity (CC50) in HFF cells in the herpes virus tests; conditions: HFF Cells; for HSV-2 CPE Inhibition CC50: HSV-2 test
[10] = as above; conditions: human
HCMV = HCMV CPE inhibition in HFF cells
[11] = tested on: Parainfluenza Type 3 Virus; assay: organism not typed; type: cell-based; conditions: MA104; Parainfluenza Type 3 Virus; read-out: CPI Inhibition EC50
in vitro [12] = conditions: African green monkey

O=c1cc(-c2ccc(O)c(-c3c(O)cc4oc(-c5ccc(O)cc5)cc(=O)c4c3O)c2)oc2cc(O)cc(O)c12 [Robustaflavone (3), robustaflavone]
EC50 (Measles Virus): < 14 µg/mL
EC50 (Adenovirus Type 5): > 100 µg/mL
EC50 [1]: 1.8 µg/mL (≈ 3.34 µM)
EC50 (Hepatitis B Virus (HBV) [2]; Hepatitis B virus, read-out: EC50, concentration necessary to decrease HBV DNA levels by 50%, 2.2.15 cells, combinations: with respect to RF): 0.25 µM
EC90 (Hepatitis B Virus (HBV) [2]; read-out: EC90 (90% effective dose), HBV Virion, extracellular (virion) HBV DNA, 9 days treatment): 2.4 µM
EC90 (Hepatitis B Virus (HBV) [2]; read-out: EC90 (90% effective dose), HBV Virion, extracellular (virion) HBV DNA, 9 days treatment, listed as Robustaflavone): 2.2 µM
EC90 (Hepatitis B Virus (HBV) [2]; read-out: EC90, concentration necessary to decrease HBV DNA levels by 90%, combinations: with respect to RF): 2.2 µM
SI (CC50/EC90), HBV Virion (Hepatitis B Virus (HBV) [2]): 153
SI (CC50/EC90), HBV Virion (Hepatitis B Virus (HBV) [2]; listed as Robustaflavone): 153
SI (CC50/EC90), HBV Virion (Hepatitis B Virus (HBV) [2]; listed as robustaflavone): 153
EC50 [3]: 39 µg/mL (≈ 72.4 µM)
IC50 [4]: 77 µM
IC50 (in vitro [5]): 56 µg/mL (≈ 104 µM)
EC50 (Influenza B Panama/45/90): 0.23 µg/mL (≈ 0.427 µM)
IC50 (in vitro [6]; CPE Inhibition IC50 (50% cell inhibitory (cytotoxic) concentration), Influenza A (H1N1) test): 18 µg/mL (≈ 33.4 µM)
IC50 (in vitro [6]; CPE Inhibition IC50 (cytotoxic), Influenza A (H3N2) test): 32 µg/mL (≈ 59.4 µM)
IC50 (in vitro [6]; CPE Inhibition IC50 (cytotoxic), Influenza B test): ~100 µg/mL (≈ 186 µM)
EC50 (Hepatitis B Virus (HBV) [7]; Hepatitis B virus, read-out: EC50, HBV replication intermediates (RI) (intracellular DNA)): 0.6 µM
EC50 (Hepatitis B Virus (HBV) [7]; Hepatitis B virus, read-out: EC50, second value in parentheses): 0.6 µM
EC90 (Hepatitis B Virus (HBV) [7]; Hepatitis B virus, Table 2, value in parentheses, not explained, read-out: EC90, second value in parentheses): 5.6 µM
SI (CC50/EC90), second value in parentheses (Hepatitis B Virus (HBV) [7]; Table 2, value in parentheses, not explained): 60
IC50 (HIV-1 RT; Anti-HIV-1 RT IC50, values in parentheses or in words): 65 µM
IC50 (HIV-1 RT; HIV-1 RT IC50 (50% inhibition dose)): 62.6 µM and 65.4 µM
inhibition at 200 µg/mL (HIV-1 RT; read-out: Anti-HIV-1 RT % Inhibition at 200 μg/ml): 91.4%
anti-HIV-1 activity in PBM cells (in words) (HIV-1 (strain LAV-1)): inactive
EC50 (HIV-1 (strain LAV-1); Human immunodeficiency virus 1, PBMC, human PBM cells infected with HIV-1 (strain LAV), read-out: Ant-HIV-1 in PBM cells EC50): > 100 µM
Selective Index (SI) (HIV-1 (strain LAV-1); PBM cells): <1
Viral Antigens: HBeAg (Hepatitis B Virus (HBV) [8]): 86 ± 6 % of Day 0 Control
Viral Antigens: HBsAg (Hepatitis B Virus (HBV) [8]): 97 ± 6 % of Day 0 Control
Viral Antigens: HbcAG (Hepatitis B Virus (HBV) [8]): 138 ± 8 % of Day 0 Control
Viral DNA: Extracellular DNA (Hepatitis B Virus (HBV) [8]): 1 ± 1 % of Day 0 Control
Viral DNA: Intracellular DNA (Hepatitis B Virus (HBV) [8]): 5 ± 1 % of Day 0 Control
Viral mRNA: 3.6 kb and 2.1 kb mRNA (first column) (Hepatitis B Virus (HBV) [8]): 93 ± 10 % of Day 0 Control
EC50 [9]: ~56 µg/mL (≈ 104 µM)
HSV-1 CPE Inhibition CC50 (HFF Cells; HSV-1 test): >100 µg/mL
HSV-2 CPE Inhibition CC50 (HFF Cells; listed as Robustaflavone(3)): >100 µg/mL
HSV-2 CPE Inhibition CC50 (HFF Cells; listed as robustaflavone (3)): > 100 µg/mL
CC50 at 3 days [10]: > 100 µg/mL
CC50 at 14 days [10]: > 100 µg/mL
HCMV SI (CC50/EC50) (HCMV; HFF Cells): >1.8
EC50 (HCMV; Human betaherpesvirus 5, HFF, read-out: HCMV CPE Inhibition EC50): 54.8 µg/mL (≈ 102 µM)
EC50 [11]: > 100 µg/mL
IC50 (in vitro [12]; CPE Inhibition IC50 (cytotoxic), Respiratory Syncytial Virus test): 56 µg/mL (≈ 104 µM)
IC50 (in vitro [12]; CPI Inhibition IC50 (cytotoxic), Parainfluenza Type 3 Virus test): 56 µg/mL (≈ 104 µM)
